We go through 5 molecules from patent US5068332A, “Alkylidene analogs of 1'-aminospiro[isoquinoline-4(1H),3'-pyrrolidine]-1,2',3,5'(2H)-tetrones useful as aldose reductase inhibitors” (American Home Products Corporation, priority 1990, dated 1991).

One assay deals with T1, aldose reductase (Bos taurus, UniProt P16116).
T1 construct: preparation of the enxyme from bovine lens; from tissue; host or cells: bovine lens
Nature of the assay: aldose reductase inhibition in vitro (modified Hayman and Kinoshita procedure, enzyme from bovine lens). The settings on record: 10^-5 M. The class given is biochemical. The method, then: (§1) (c) The polyol determination was performed by a modification of the procedure of M. Kraml and L. Cosyns, Clin. Biochem., 2, 373 (1969). Only two minor reagent changes were made: (a) the rinsing mixture was an aqueous 5% (w/v) trichloroacetic acid solution and (b) the stock solution was prepared by dissolving 25 mg of dulcitol in 100 mL of an aqueous trichloroacetic acid solution. [N.B.: For each experiment the average value found in the tissue from rats fed the glucose diet was substracted from the individual values found in the corresponding tissue in galactose-fed rats to obtain the amount of polyol accumulated.] The aldose reductase inhibiting effects of the compounds of formula (I) were also tested by employing an in vitro testing procedure similar to that described by S. Hayman and J.H. Kinoshita, J. Biol. Chem., 240, 877 (1965). In the present case the procedure of Hayman and Kinoshita was modified in that the final chromatography step was omitted in the preparation of the enxyme from bovine lens.

A further assay relates to dulcitol accumulation. The assay is described as follows: lowering of galactitol (dulcitol) accumulation in tissues of galactosemic rats in vivo. Further details: species or system rat (male, Sprague-Dawley). The settings on record: in diet, 4 days; for % Lowering Galactitol Accumulation In Vivo, % (D): diaphragm; for % Lowering Galactitol Accumulation In Vivo, % (L): lens.
Description: The aldose reductase inhibiting property of the compounds of this invention and the utilization of the compounds in preventing, diminishing and alleviating diabetic complications are demonstrable in experiments using galactosemic rats, see Dvornik et al., Science, 182, 1146 (1973). Such experiments are exemplified hereinbelow after the listing of the following general comments pertaining to these experiments:
(a) Four or more groups of six male rats, 50-70 g, Sprague-Dawley strain, were used. The first group, the control group, was fed a mixture of laboratory chow (rodent Laboratory Chow, Purina) and glucose at 20% (w/w %) concentration. An untreated galactosemic group was fed a similar diet in which galactose was substituted for glucose. The third group was fed a diet prepared by mixing a given amount of the test compound with the galactose containing diet. The concentration of galactose in the diet of the treated groups was the same as that for the untreated galactosemic group.
(b) After four days, the animals were killed by euthanization. Both the lens and sciatic nerve were removed, weighed and stored frozen for polyol determination.
as §1
The figures under L, N, and D represent the percentage decrease of dulcitol accumulation in the tissues of the lens, sciatic nerve, and diaphragm, respectively, for treated rats as compared to untreated rats.

The term inhibition denotes the drop in the measured response relative to a control, in per cent. Read a high inhibition as strong suppression. At aldose reductase, `O=C1c2ccccc2C2(CC(=O)N(N=C3CCCC3)C2=O)C(=O)N1Cc1ccc(Br)cc1F` (stereo not shown) [2-[(4-bromo-2-fluorophenyl)methyl]-1'-(cyclopentylideneamino)spiro[isoquinoline-4(1H),3'-pyrrolidine]-1,2',3,5'(2H)-tetrone] had an inhibition at 10 µM of 0%. Further, in the assay on dulcitol accumulation (48 mg/kg/day), the “% Lowering Galactitol Accumulation In Vivo, % (D)” value came out at 95% and the “% Lowering Galactitol Accumulation In Vivo, % (L)” value is 76%.

Regarding `CCC(CC)=NN1C(=O)CC2(C(=O)N(Cc3ccc(Br)cc3F)C(=O)c3ccccc32)C1=O` (stereo not shown) [2-[(4-bromo-2-fluorophenyl)methyl]-1'-[(1-ethylpropylidene)amino]spiro[isoquinoline-4(1H),3'-pyrrolidine]-1,2',3,5'(2H)-tetrone], the inhibition at 10 µM at aldose reductase came out at 0%. For the same molecule, in the assay with dulcitol accumulation (51 mg/kg/day), the “% Lowering Galactitol Accumulation In Vivo, % (D)” value is reported as 93% and the “% Lowering Galactitol Accumulation In Vivo, % (L)” value is 71%.

At aldose reductase, `CC(C)=NN1C(=O)CC2(C(=O)N(Cc3ccc(Br)cc3F)C(=O)c3ccccc32)C1=O` (stereo not shown) [2-[(4-bromo-2-fluorophenyl)methyl]-1'-[(1-methylethylidene)amino]spiro[isoquinoline-4(1H),3'-pyrrolidine]-1,2',3,5'(2H)-tetrone] came in with an inhibition at 10 µM of 8%. The “% Lowering Galactitol Accumulation In Vivo, % (D)” value in the assay with dulcitol accumulation (0.9 mg/kg/day) is on record as 66%; in the assay with dulcitol accumulation (10.8 mg/kg/day) it was 86%; in the assay on dulcitol accumulation (56 mg/kg/day) it was 95%. Also, the “% Lowering Galactitol Accumulation In Vivo, % (L)” value was 30% with dulcitol accumulation (10.8 mg/kg/day) and 53% with dulcitol accumulation (56 mg/kg/day).

Molecule `O=C1c2ccccc2C2(CC(=O)N(N=C3CCOCC3)C2=O)C(=O)N1Cc1ccc(Br)cc1F` (stereo not shown) [2-[(4-bromo-2-fluorophenyl)methyl]-1'-[(tetrahydro-4H-pyran-4-ylidene)amino]spiro[isoquinoline-4(1H),3'-pyrrolidine]-1,2',3,5'(2H)-tetrone] came in with an inhibition at 10 µM on aldose reductase of 36%. Also, in the assay with dulcitol accumulation (56 mg/kg/day), the “% Lowering Galactitol Accumulation In Vivo, % (D)” value is listed as 89% and the “% Lowering Galactitol Accumulation In Vivo, % (L)” value stood at 44%.

`CC(C)=NN1C(=O)CC2(C(=O)N(Cc3ccc(Br)cc3F)C(=O)c3ccc(F)cc32)C1=O` (stereo not shown) [2-[(4-bromo-2-fluorophenyl)methyl]-6-fluoro-1'-[(1-methylethylidene)amino]spiro[isoquinoline-4(1H),3'-pyrrolidine]-1,2',3,5'(2H)-tetrone]: on aldose reductase, the inhibition at 10 µM stood at 5%. Moreover, the “% Lowering Galactitol Accumulation In Vivo, % (D)” value in the assay with dulcitol accumulation (1.1 mg/kg/day) is listed as 85%. Moreover, in the assay with dulcitol accumulation (27 mg/kg/day), the “% Lowering Galactitol Accumulation In Vivo, % (D)” value worked out at 97% and the “% Lowering Galactitol Accumulation In Vivo, % (L)” value was 58%.
